In patent publication US11440907B1 (Merck Patent GmbH, priority 2018, dated 2022):

Experiments:
[1] = test system: β-catenin-TCF-mediated reporter transcription activity in Colo 205 cells; experiment: Colo 205 reporter assay (TCF/LEF promoter-driven firefly luciferase); format: cell-based; conditions: Homo sapiens; Colo 205 TCF/LEF luciferase reporter, 5 hours after compound addition, 384 well; read-out: Colo205 IC50
From the text: The compounds of the invention described herein were screened using the assay procedure for β-catenin-TCF-mediated reporter transcription activity described below.
Reporter cell lines were generated by stably transfecting cells of cancer cell lines (e.g., colon cancer) with a plasmid reporter construct (From SABiosciences, a QIAGEN company) that includes TCF/LEF promoter driving expression of the firefly luciferase gene. TCF/LEF reporter constructs were made in which TCF/LEF promoter, a promoter with optimal number of TCF/LEF binding sites designed by SABiosciences, was linked upstream of the firefly luciferase gene. This construct could also include a puromycin resistance gene as a selectable marker. This construct could also be used to stably transfect Colo 205 cells, a colon cancer cell line having a mutated APC gene that causes a constitutively active β-catenin. A control cell line was generated using another plasmid construct containing the luciferase gene under the control of a CMV basal promoter which is not activated by β-catenin.
Colo 205 Cultured cells with a stably transfected reporter construct were plated at approximately 10,000 cells per well into 384 well multi-well plates for twenty four hours. The testing compounds were then added to the wells in 2-fold serial dilutions using a twenty micromolar top concentration. A series of control wells for each cell type received only compound solvent. Five hours after the addition of compound, reporter activity for luciferase was assayed, by addition of the SteadyGlo luminescence reagent (Promega). The reporter luminescence activity was measured using Pherastar plate reader (BMG Labtech). Readings were normalized to DMSO only treated cells, and normalized activities were then used in the IC50 calculations. The Colo 205 reporter assay data are summarized in Table 3: A<0.3 μM; 0.3 μM≤B<1.0 μM; 1.0 μM≤C<5.0 μM; D≥5.0 μM.

[2] = test system: XBP1(u)-luciferase splicing reporter in HepG2 hepatoma cells; experiment: HepG2 XBP1 reporter assay (XBP1(u)-Luc); format: cell-based; conditions: Homo sapiens, 6 hours after compound addition, Table 3, read-out: XBP1-luc HepG2 1 EC50

| IC50 [1] | EC50 [2] | Compound |
| --- | --- | --- |
| 300 to 1000 nM | 600 to 2000 nM | CC(=O)Nc1cc(C2COCCCN2c2cc(C)nc(N)n2)c(Cl)cc1F (racemic) [I-85, N-[5-[4-(2-amino-6-methyl-pyrimidin-4-yl)-1,4-oxazepan-3-yl]-4-chloro-2-fluoro-phenyl]acetamide] |
| 300 to 1000 nM | 600 to 2000 nM | Cc1cc(N2CCCOC[C@@H]2c2cc(NC(=O)CCO)ccc2Cl)nc(N)n1 (racemic) [I-174, (+/−)-N-[3-[4-(2-amino-6-methyl-pyrimidin-4-yl)-1,4-oxazepan-3-yl]-4-chloro-phenyl]-3-hydroxy-propanamide] |
| 300 to 1000 nM | 600 to 2000 nM | Cc1cc(N2CCCOCC2c2ccc(N3CCN(C)CC3)cc2Cl)nc(N)n1 (racemic) [I-225, (+/−)-4-[3-[2-chloro-4-(4-methylpiperazin-1-yl)phenyl]-1,4-oxazepan-4-yl]-6-methyl-pyrimidin-2-amine] |
| 300 to 1000 nM | 600 to 2000 nM | Cc1cc(N2CCCOCC2c2ccc(N3CCCC3)cc2Cl)nc(N)n1 (racemic) [I-227, (+/−)-4-[3-(2-chloro-4-pyrrolidin-1-yl-phenyl)-1,4-oxazepan-4-yl]-6-methyl-pyrimidin-2-amine] |
| 300 to 1000 nM | < 600 nM | Cc1cc(N2CCCOCC2c2ccc(NC(=O)C(C)(F)F)cc2Cl)nc(N)n1 (racemic) [I-228, (+/−)-N-(4-(4-(2-amino-6-methylpyrimidin-4-yl)-1,4-oxazepan-3-yl)-3-chlorophenyl)-2,2-difluoropropanamide] |
| 300 to 1000 nM | < 600 nM | Cc1cc(N2CCCOCC2c2ccc(OCC3(C)CCOC3)cc2Cl)nc(N)n1 (racemic) [I-229, (+/−)-4-[3-[2-chloro-4-[(3-methyltetrahydrofuran-3-yl)methoxy]phenyl]-1,4-oxazepan-4-yl]-6-methyl-pyrimidin-2-amine] |
| 300 to 1000 nM | < 600 nM | Cc1cc(N2CCCOCC2c2ccc(OCCC(C)(C)O)cc2Cl)nc(N)n1 (racemic) [I-230, (+/−)-4-[4-[4-(2-amino-6-methyl-pyrimidin-4-yl)-1,4-oxazepan-3-yl]-3-chloro-phenoxy]-2-methyl-butan-2-ol] |
| < 300 nM | < 600 nM | Cc1cc(N2CCCOCC2c2ccc(OC3COC3)cc2Cl)nc(N)n1 (racemic) [I-231, (+/−)-4-[3-[2-chloro-4-(oxetan-3-yloxy)phenyl]-1,4-oxazepan-4-yl]-6-methyl-pyrimidin-2-amine] |
| < 300 nM | < 600 nM | Cc1cc(N2CCCOCC2c2ccc(OC[C@@H](C)O)cc2Cl)nc(N)n1 (mixture of isomers) [I-232, (+/−)-1-(4-(4-(2-amino-6-methylpyrimidin-4-yl)-1,4-oxazepan-3-yl)-3-chlorophenoxy)propan-2-ol] |
| < 300 nM | 600 to 2000 nM | Cc1cc(N2CCCOCC2c2ccc(OCC3(CO)CC3)cc2Cl)nc(N)n1 (racemic) [I-233, (+/−)-[1-[[4-[4-(2-amino-6-methyl-pyrimidin-4-yl)-1,4-oxazepan-3-yl]-3-chloro-phenoxy]methyl]-cyclopropyl]methanol] |
| < 300 nM | < 600 nM | Cc1cc(N2CCCOCC2c2ccc(C3CCCO3)cc2Cl)nc(N)n1 (racemic) [I-235, (+/−)-4-(3-(2-chloro-4-(tetrahydrofuran-2-yl)phenyl)-1,4-oxazepan-4-yl)-6-methylpyrimidin-2-amine] |
| < 300 nM | < 600 nM | Cc1cc(N2CCCOCC2c2ccc(C(CO)CO)cc2Cl)nc(N)n1 (racemic) [I-236, (+/−)-2-(4-(4-(2-amino-6-methylpyrimidin-4-yl)-1,4-oxazepan-3-yl)-3-chlorophenyl)propane-1,3-diol] |
| < 300 nM | < 600 nM | Cc1cc(N2CCCOCC2c2ccc(C3CCOC3)cc2Cl)nc(N)n1 (racemic) [I-238, (+/−)-4-(3-(2-chloro-4-(tetrahydrofuran-3-yl)phenyl)-1,4-oxazepan-4-yl)-6-methylpyrimidin-2-amine] |
